{
  "source": "patent US20230270731A1",
  "about": "“THERAPEUTIC COMPOUNDS AND COMPOSITIONS” (eXIthera Pharmaceuticals, Inc., priority 2019, published 2023)",
  "assay_type_in_all_cases": "physicochemical",
  "key": {"[1]": {"experiment": "Compatibility with infusion vehicles (NS, D5W)", "method": "The compatibility of the reconstituted Compound 1 formulation with two infusion vehicles, normal saline (NS) and 5% dextrose in water (D5W) was tested after Δt=4 h for two concentration (high/low) at c(Compound 1, target)=0.1 mg/mL and c(Compound 1, target)=1.0 mg/mL and at ambient conditions (Table 10). The average values of % recovery are relative to the dilution of the reconstituted drug product into DI water at to."}, "[2]": {"experiment": "Citrate and PBS vehicle formulations: pH, osmolality, concentration and recovery (HPLC)", "method": "Two additional vehicles: sodium citrate (50 mM) and PBS (commercial) were formulated at different concentrations (Table 5, Table 6). Both vehicles at any concentration were compounded using the appropriate final sodium hydroxide concentration (0.1 M NaOH stock solution).\nThe PBS vehicle was compounded to two different pH-values while the citrate vehicle was compounded at different concentrations at the same target pH and tested for its stability over the course of 24 h (rt, exclusion from light). To evaluate the potential occurrence of particles from precipitation, a filtration step (0.2 μm micro centrifugal filters) was included at each time point.\nIn case of Sample #27 the amount of HCl (aq.) (0.1 M stock) added instead of the NaOH-solution was mixed with the 10×PBS buffer and added to the aqueous solution of Compound 1 in a single step."}, "[3]": {"experiment": "Compatibility with infusion bags", "conditions": "infus. bag1, t0 (Table 15)"}, "[4]": {"experiment": "Reconstitution and reconstitution stability of the lyophilized Compound 1 drug product", "conditions": "reconstituted drug product", "method": "The lyophilized Compound 1 drug product was subjected to testing of reconstitution and to stability testing for 6 h after reconstituted with DI water VDIwater=5 mL.\nThe lyophilization cake readily reconstituted within 10-20 s. The solution during reconstitution appeared quite foamy and contained many bubbles, which cleared within approximately 2 min addition of the reconstitution solution. Residual micro-bubbles on the container wall can be removed by vortexing (2 s) or sonication (2 s). […] The pH of the reconstituted solution was measured with pH=6.81; the osmolality was determined to φ=295 mOsm/kg. The reconstituted solution was practically free of particulates as determined by liquid particle counting (LPC, HIAC: Vsample=5 mL, nruns=4, 1st run discarded, fdilution=10, Vnominal, container=2 mL) with a cumulative count of 3200 particles at a size of 10 μm and 667 particles at a size of 25 μm.\nThe recovery of Compound 1 was monitored for 24 h after reconstitution to test for the in-use stability of the reconstituted solution (Table 9)"}, "[5]": {"experiment": "Compatibility with sterilization filters", "method": "The feasibility of aseptic processing was evaluated and three different filter materials were tested for compatibility with the reconstituted Compound 1 formulation.\nFilter compatibility of the reconstituted Compound 1 drug product was tested with different filter material (Table 17) composed of polyethersulfone (PES), nylon, and polyvinylidene fluoride (PVDF). For this a volume of Vfilter pass=10 mL was passed through the respective filter and the first as well as the last 10 vol % of the filtered volume were assayed for recovery of Compound 1 (Table 12).\nThe average values of % recovery are relative to the reconstituted drug product that has not been in contact with the tested materials."}, "[6]": {"experiment": "Compatibility with IV systems", "method": "The compatibility of the reconstituted Compound 1 formulation with two infusion bags (different volumes and material) and two IV lines was tested (Table 13) at c(Compound 1)=0.1 mg/mL. After injection of the reconstituted drug product solution into infusion bags filled with NS, the recovery of Compound 1 was measured i) directly after mixing with the infusion vehicle (to, Table 14) and ii) after Δt=[…] of contact time with the infusion bag (Table 15). Additionally, storage in an infusion bag at ambient temperature and lighting conditions was assessed for Δt=6 h (Table 15). The average values of % recovery are relative to the reconstituted drug product that has not been in contact with the tested materials.\nThe two IV systems were evaluated for compatibility with the reconstituted drug product solution by filling the IV lines with the diluted (NS) drug product solution and flowing Vflow through (FT)=101 mL through the respective IV system at a flow rate of 5 mL/min. Flow-through samples of Vsample=1 mL were collected i) immediately (VFT=0 mL), ii) after VFT=10 mL and iii) after VFT=[…]. Flow through samples were assayed for recovery of Compound 1 and compared to the infusion solution in the reservoir at t0 (Table 16)."}, "[7]": {"experiment": "pH-dependent stability and pH-rate profile, 10-day, 4° C. and 40° C.", "conditions": "for stability in buffered aqueous solutions: pH=2-8, 0.1 mg/mL, 100 mM buffer, in the dark, 10 days", "method": "The stability Compound 1 was assessed over a 10-day period at several pH-values pH=2, 3, 4, 5, 6, 7, 8) and at two different temperatures (4° C., 40° C.). Samples of Compound 1 at c(Compound 1)=0.1 mg/mL were prepared in standard buffers (Table 2) at a buffer strength of c(buffer)=100 mM and incubated at either T=4° C. or T=40° C. (exclusion from light during incubation and analysis). The concentration of Compound 1 was assessed in such samples via HPLC analysis at an initial time point (to) and on days 1, 2, 3, 4, 7 and 10 (Δt=day×24 h). The pH was monitored at identical time points during the 10-day period.\nOver the 10-day period for both temperatures the pH of the sample solutions (FIG. 2A & FIG. 2B) was monitored and the recovery (R %) of Compound 1 (FIG. 3A & FIG. 3B) was calculated via:\nwhereas c(Compound 1, theor.)=0.1 mg/mL and c(Compound 1, actual) is determined by HPLC analysis via integration of the Compound 1 parent peak areas."}},
  "data": [
    {"smiles": "C[C@@H](NC(=O)N1C(=O)[C@H](Cc2ccnc(N)c2)[C@H]1C(=O)O)C1CCCCC1", "note": "[Compound 1, (2S,3R)-3-[(2-aminopyridin-4-yl)methyl]-1-{[(1R)-1-cyclohexylethyl]carbamoyl}-4-oxoazetidine-2-carboxylic acid]", "values": [
      {"measurement": "Avg. c(Compound 1, FB, Obs.)", "setting": "[1]; target 0.1 mg/mL, D5W, t = 4 h, ambient", "result": 0.09, "unit": "mg/mL"},
      {"measurement": "Avg. c(Compound 1, FB, Obs.)", "setting": "[1]; target 0.1 mg/mL, NS, t = 4 h, ambient", "result": 0.09, "unit": "mg/mL"},
      {"measurement": "Avg. c(Compound 1, FB, Obs.)", "setting": "[1]; target 0.1 mg/mL, Water, t0", "result": 0.09, "unit": "mg/mL"},
      {"measurement": "Avg. c(Compound 1, FB, Obs.)", "setting": "[1]; target 0.1 mg/mL, Water, t = 4 h, ambient", "result": 0.09, "unit": "mg/mL"},
      {"measurement": "Avg. c(Compound 1, FB, Obs.)", "setting": "[1]; target 1.0 mg/mL, D5W, t = 4 h, ambient", "result": 0.92, "unit": "mg/mL"},
      {"measurement": "Avg. c(Compound 1, FB, Obs.)", "setting": "[1]; target 1.0 mg/mL, NS, t = 4 h, ambient", "result": 0.92, "unit": "mg/mL"},
      {"measurement": "Avg. c(Compound 1, FB, Obs.)", "setting": "[1]; target 1.0 mg/mL, Water, t0", "result": 0.92, "unit": "mg/mL"},
      {"measurement": "Avg. c(Compound 1, FB, Obs.)", "setting": "[1]; target 1.0 mg/mL, Water, t = 4 h, ambient", "result": 0.92, "unit": "mg/mL"},
      {"measurement": "Stability of Compound 1 in citrate buffer", "setting": "[2]; 24 h, ambient temperature", "result": "confirmed"},
      {"measurement": "Precipitation of Compound 1", "setting": "[2]; citrate buffer, within 24 h", "result": "not observed"},
      {"measurement": "Avg. c(Compound 1, FB, Obs.)", "setting": "[3]", "result": 0.09, "unit": "mg/mL"},
      {"measurement": "Avg. c(Compound 1, FB, Obs.)", "setting": "[4]; t0", "result": 9.65, "unit": "mg/mL"},
      {"measurement": "pH (Meas.)", "setting": "[4]; t0", "result": 6.80},
      {"measurement": "Avg. c(Compound 1, FB, Obs.)", "setting": "[4]; t = 1 h", "result": 9.47, "unit": "mg/mL"},
      {"measurement": "pH (Meas.)", "setting": "[4]; t = 1 h", "result": 6.79},
      {"measurement": "Avg. c(Compound 1, FB, Obs.)", "setting": "[4]; t = 2 h", "result": 9.20, "unit": "mg/mL"},
      {"measurement": "pH (Meas.)", "setting": "[4]; t = 2 h", "result": 6.80},
      {"measurement": "Avg. c(Compound 1, FB, Obs.)", "setting": "[4]; t = 4 h", "result": 9.19, "unit": "mg/mL"},
      {"measurement": "pH (Meas.)", "setting": "[4]; t = 4 h", "result": 6.79},
      {"measurement": "Avg. c(Compound 1, FB, Obs.)", "setting": "[4]; t = 6 h", "result": 9.28, "unit": "mg/mL"},
      {"measurement": "pH (Meas.)", "setting": "[4]; t = 6 h", "result": 6.79},
      {"measurement": "Avg. c(Compound 1, FB, Obs.)", "setting": "[4]; t = 24 h", "result": 8.99, "unit": "mg/mL"},
      {"measurement": "pH (Meas.)", "setting": "[4]; t = 24 h", "result": 6.85},
      {"measurement": "Avg. c(Compound 1, FB, Obs.)", "setting": "[5]; Nylon filter, first 10% of 10 mL", "result": 0.94, "unit": "mg/mL"},
      {"measurement": "Avg. c(Compound 1, FB, Obs.)", "setting": "[5]; Nylon filter, last 10% of 10 mL", "result": 0.95, "unit": "mg/mL"},
      {"measurement": "Avg. c(Compound 1, FB, Obs.)", "setting": "[5]; PES filter, first 10% of 10 mL", "result": 0.94, "unit": "mg/mL"},
      {"measurement": "Avg. c(Compound 1, FB, Obs.)", "setting": "[5]; PES filter, last 10% of 10 mL", "result": 0.95, "unit": "mg/mL"},
      {"measurement": "Avg. c(Compound 1, FB, Obs.)", "setting": "[5]; PVDF filter, first 10% of 10 mL", "result": 0.95, "unit": "mg/mL"},
      {"measurement": "Avg. c(Compound 1, FB, Obs.)", "setting": "[5]; PVDF filter, last 10% of 10 mL", "result": 0.95, "unit": "mg/mL"},
      {"measurement": "Avg. c(Compound 1, FB, Obs.)", "setting": "[5]; Sample Soln. (pre-filtration)", "result": 0.95, "unit": "mg/mL"},
      {"measurement": "back-pressure during filtration", "setting": "[5]; any of the tested filters", "result": "No increase"},
      {"measurement": "Avg. c(Compound 1, FB, Obs.)", "setting": "[6]; IV#1, VFT = 0 mL, 5 mL/min", "result": 0.09, "unit": "mg/mL"},
      {"measurement": "Avg. c(Compound 1, FB, Obs.)", "setting": "[6]; IV#1, VFT = 10 mL, 5 mL/min", "result": 0.09, "unit": "mg/mL"},
      {"measurement": "Avg. c(Compound 1, FB, Obs.)", "setting": "[6]; IV#1, VFT = 100 mL, 5 mL/min", "result": 0.09, "unit": "mg/mL"},
      {"measurement": "Avg. c(Compound 1, FB, Obs.)", "setting": "[6]; IV#2, VFT = 0 mL, 5 mL/min", "result": 0.09, "unit": "mg/mL"},
      {"measurement": "Avg. c(Compound 1, FB, Obs.)", "setting": "[6]; IV#2, VFT = 10 mL, 5 mL/min", "result": 0.09, "unit": "mg/mL"},
      {"measurement": "Avg. c(Compound 1, FB, Obs.)", "setting": "[6]; IV#2, VFT = 100 mL, 5 mL/min", "result": 0.09, "unit": "mg/mL"},
      {"measurement": "Avg. c(Compound 1, FB, Obs.)", "setting": "[6]; infus. bag, t0 (IV#1), reservoir", "result": 0.09, "unit": "mg/mL"},
      {"measurement": "Avg. c(Compound 1, FB, Obs.)", "setting": "[6]; infus. bag, t0 (IV#2), reservoir", "result": 0.09, "unit": "mg/mL"},
      {"measurement": "precipitation of the drug compound", "setting": "[7]; 0.1 mg/mL, pH 2-8, 10 days", "result": "no precipitation"},
      {"measurement": "stability/pH-correlation", "setting": "[7]; pH 2-8, 10 days", "result": "more stable towards a low pH and less stable towards a higher pH"},
      {"measurement": "stability in buffered aqueous solutions", "setting": "[7]; 4° C.", "result": "stable"},
      {"measurement": "stability in buffered aqueous solutions", "setting": "[7]; 40° C.", "result": "significant degradation"}
    ]}
  ]
}
